From patent publication US10562850B2, “Human plasma kallikrein inhibitors” (priority 2015, dated 2020)

What follows are compounds tested against human plasma kallikrein (Homo sapiens (Human), UniProt P03952) (assay: Plasma Kallikrein Activity Assay (chromogenic substrate S2302)). Conditions: 2 nM kallikrein, 80 μM S2302, 30° C., pH 7.8; Cheng-Prusoff.
human plasma kallikrein, sequence (P03952 391-638): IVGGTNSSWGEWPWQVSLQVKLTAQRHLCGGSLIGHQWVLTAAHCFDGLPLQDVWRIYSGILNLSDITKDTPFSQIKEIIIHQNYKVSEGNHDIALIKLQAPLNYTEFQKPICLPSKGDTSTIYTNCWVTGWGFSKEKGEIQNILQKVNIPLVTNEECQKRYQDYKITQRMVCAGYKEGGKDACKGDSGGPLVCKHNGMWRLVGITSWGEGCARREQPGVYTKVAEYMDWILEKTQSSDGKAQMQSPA
human plasma kallikrein, sequence (P03952 20-390 partner): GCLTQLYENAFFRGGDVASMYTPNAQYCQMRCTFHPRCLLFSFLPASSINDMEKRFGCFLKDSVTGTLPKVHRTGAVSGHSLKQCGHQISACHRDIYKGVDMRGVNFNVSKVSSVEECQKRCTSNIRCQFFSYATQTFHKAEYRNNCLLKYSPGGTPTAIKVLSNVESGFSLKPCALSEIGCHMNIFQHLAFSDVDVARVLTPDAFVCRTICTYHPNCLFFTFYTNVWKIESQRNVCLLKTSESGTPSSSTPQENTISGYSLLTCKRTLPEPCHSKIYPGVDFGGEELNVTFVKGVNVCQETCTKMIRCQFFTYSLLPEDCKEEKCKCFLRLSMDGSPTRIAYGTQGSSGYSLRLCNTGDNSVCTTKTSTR
Format: biochemical
Procedure: Plasma Kallikrein Activity Assay.
The effect of compounds of the invention on human plasma kallikrein activity was determined using the chromogenic substrates (DiaPharma Group, Inc., West Chester, Ohio, USA). In these experiments, 2 nM kallikrein (Enzyme Research Laboratories, South Bend, Ind., USA) was incubated with 80 μM S2302 (H-D-Pro-Phe-Arg-p-nitroaniline) in the absence or presence of increasing concentrations of compounds of the invention in a final volume of 200 μL Tris-HCl buffer (200 mM NaCl; 2.5 mM CaCl2; 50 mM Tris-HCl, pH 7.8).
After incubation at 30° C., the activity of kallikrein was measured as a change in absorbance at OD 405 nm using BioTek PowerWave X340 Microplate Reader (Winooski, Vt., USA). Data were analyzed using SigmaPlot software (Systat Software, Inc., San Jose, Calif., USA) (Four Parameter Logistic Curve). Ki values for the inhibitors were determined using the Cheng-Prusoff equation (Biochem. Pharmacol. 1973, 22, 3099).
With `CO[C@@H]1C[C@@H](C(=O)Nc2cc(C(N)(CCC3CC3)c3cccc(C#N)c3)ccc2F)N(C(=O)N(C)c2ccc(Cl)cc2)C1` (stereo partly drawn) [Compound 6f, (2S,4R)-N2-(5-((+)-1-amino-1-(3-cyanophenyl)-3-cyclopropylpropyl)-2-fluorophenyl)-N1-(4-chlorophenyl)-4-methoxy-N1-methylpyrrolidine-1,2-dicarboxamide] the Ki was over 100 nM. With `N#Cc1cccc(C(N)(CCC2CC2)c2ccc(F)c(NC(=O)[C@@H]3C[C@H](O)CN3C(=O)Nc3ccc(Cl)cc3)c2)c1` (stereo partly drawn) [Compound 10c, (2S,4S)-N2-(5-((−)-1-amino-1-(3-cyanophenyl)-3-cyclopropylpropyl)-2-fluorophenyl)-N1-(4-chlorophenyl)-4-hydroxypyrrolidine-1,2-dicarboxamide] the Ki was over 100 nM. Compound `N#Cc1cccc(C(CCC2CC2)(NC(=O)Nc2ccc(Cl)cc2)c2ccc(F)c(NC(=O)[C@H]3C[C@](O)(c4ccccc4)CN3C(=O)Nc3ccc(Cl)cc3)c2)c1` (stereo partly drawn) [Compound 30b, (2R,4S)-N1-(4-chlorophenyl)-N2-(5-((+)-1-(3-(4-chlorophenyl)ureido)-1-(3-cyanophenyl)-3-cyclopropylpropyl)-2-fluorophenyl)-4-hydroxy-4-phenylpyrrolidine-1,2-dicarboxamide] has a Ki of 50 to 100 nM. For `CO[C@@H]1C[C@H](C(=O)Nc2cc(C(N)(CCC3CC3)c3ccncc3)ccc2F)N(C(=O)Nc2ccc(Cl)cn2)C1` (stereo partly drawn) [Compound 70c, (2R,4R)-N2-(5-((+)-1-amino-3-cyclopropyl-1-(pyridin-4-yl)propyl)-2-fluorophenyl)-N1-(5-chloropyridin-2-yl)-4-methoxypyrrolidine-1,2-dicarboxamide], the Ki was under 50 nM. Compound `CO[C@@H]1C[C@H](C(=O)Nc2cc(C(CCC3CC3)(N[S@+]([O-])C(C)(C)C)c3ccccc3)ccc2F)N(C(=O)Nc2ccc(Cl)cn2)C1` (stereo partly drawn) [Compound 66c, (2R,4R)-N1-(5-chloropyridin-2-yl)-N2-(5-((+)-3-cyclopropyl-1-((R)-1,1-dimethylethylsulfinamido)-1-phenylpropyl)-2-fluorophenyl)-4-methoxypyrrolidine-1,2-dicarboxamide] has a Ki of over 100 nM. Work on `CO[C@@H]1C[C@H](C(=O)Nc2cccc(C(N)(CCC3CC3)c3ccncc3)c2)N(C(=O)Nc2ccc(Cl)cn2)C1` (stereo partly drawn) [Compound 75e, (2R,4R)-N2-(3-((+)-1-amino-3-cyclopropyl-1-(pyridin-4-yl)propyl)phenyl)-N1-(5-chloropyridin-2-yl)-4-methoxypyrrolidine-1,2-dicarboxamide] yielded a Ki of under 50 nM. `CO[C@@H]1C[C@H](C(=O)Nc2cc(C(N)(CCC3CC3)c3ccncc3)ccc2F)N(C(=O)c2cccc(C#N)c2)C1` (stereo partly drawn) [Compound 86a, (2R,4R)-N-(5-((+)-1-amino-3-cyclopropyl-1-(pyridin-4-yl)propyl)-2-fluorophenyl)-1-(3-cyanobenzoyl)-4-methoxypyrrolidine-2-carboxamide] gave a Ki of over 100 nM. For `CO[C@@H]1C[C@H](C(=O)Nc2cc(C(N)(CCC3CC3)c3ccccn3)ccc2F)N(C(=O)Nc2ccc(Cl)cc2)C1` (stereo partly drawn) [Compound 65b, (2R,4R)-N2-(5-((+)-1-amino-3-cyclopropyl-1-(pyridin-2-yl)propyl)-2-fluorophenyl)-N1-(4-chlorophenyl)-4-methoxypyrrolidine-1,2-dicarboxamide], the Ki was under 50 nM. With `N#Cc1cccc(C(N)(CCC2CC2)c2ccc(F)c(NC(=O)[C@H]3C[C@@H](O)CN3C(=O)Nc3ccc(Cl)cn3)c2)c1` (stereo partly drawn) [Compound 14h, (2R,4R)-N2-(5-(1-amino-1-(3-cyanophenyl)-3-cyclopropylpropyl)-2-fluorophenyl)-N1-(5-chloropyridin-2-yl)-4-hydroxypyrrolidine-1,2-dicarboxamide] the Ki was under 50 nM. `CO[C@@H]1C[C@H](C(=O)Nc2cc(C(N)(CCC3CC3)c3ccccn3)ccc2F)N(C(=O)Nc2ccc(Cl)cn2)C1` (stereo partly drawn) [Compound 36d, (2R,4R)-N2-(5-((+)-1-amino-3-cyclopropyl-1-(pyridin-2-yl)propyl)-2-fluorophenyl)-N1-(5-chloropyridin-2-yl)-4-methoxypyrrolidine-1,2-dicarboxamide] was tested, and the Ki was over 100 nM. In the case of `CC(C)(C)[S@@+]([O-])NC(CCC1CC1)(c1cccc(C#N)c1)c1ccc(F)c(NC(=O)[C@@H]2CCCN2C(=O)Nc2ccc(Cl)cc2)c1` (stereo partly drawn) [Compound 8b, (S)-N1-(4-chlorophenyl)-N2-(5-((−)-1-(3-cyanophenyl)-3-cyclopropyl-1-((R)-1,1-dimethylethylsulfinamido)propyl)-2-fluorophenyl)pyrrolidine-1,2-dicarboxamide], the Ki is reported as over 100 nM. With `CC(C)(C)[S@@+]([O-])NC(CCC1CC1)(c1cccc(C#N)c1)c1ccc(F)c(NC(=O)[C@H]2C[C@@H](O)CN2C(=O)Nc2ccc(Cl)cc2)c1` (stereo partly drawn) [Compound 4f, (2R,4R)-N1-(4-chlorophenyl)-N2-(5-((−)-1-(3-cyanophenyl)-3-cyclopropyl-1-((R)-1,1-dimethylethylsulfinamido)propyl)-2-fluorophenyl)-4-hydroxypyrrolidine-1,2-dicarboxamide] the Ki was 50 to 100 nM. `NC(CCC1CC1)(c1ccc(F)c(NC(=O)[C@H]2C[C@](O)(c3ccccc3)CN2C(=O)Nc2ccc(Cl)cn2)c1)c1ccccn1` (stereo partly drawn) [Compound 32a, (2R,4S)-N2-(5-((+)-1-amino-3-cyclopropyl-1-(pyridin-2-yl)propyl)-2-fluorophenyl)-N1-(5-chloropyridin-2-yl)-4-hydroxy-4-phenylpyrrolidine-1,2-dicarboxamide] gave a Ki of under 50 nM. For “(2R,4R)-N1-(4-chlorophenyl)-N2-(5-((+)-3-cyclopropyl-1-((S)-1,1-dimethylethylsulfinamido)-1-(pyridin-2-yl)propyl)-2-fluorophenyl)-4-hydroxypyrrolidine-1,2-dicarboxamide [Compound 61b]”, the Ki was under 50 nM. In the case of `N#Cc1cccc(C(N)(CCC2CC2)c2ccc(F)c(NC(=O)[C@H]3C[C@@H](O)CN3C(=O)Nc3ccc(C(F)(F)F)cc3)c2)c1` (stereo partly drawn) [Compound 27b, (2R,4R)-N2-(5-((+)-1-amino-1-(3-cyanophenyl)-3-cyclopropylpropyl)-2-fluorophenyl)-4-hydroxy-N1-(4-(trifluoromethyl)phenyl)pyrrolidine-1,2-dicarboxamide], the Ki is reported as over 100 nM. With `CO[C@@H]1C[C@H](C(=O)Nc2cc(C(N)(CCC3CC3)c3ccncc3)ccc2F)N(C(=O)c2ccc3cc[nH]c3c2)C1` (stereo partly drawn) [Compound 82a, (2R,4R)-N-(5-(-(+)-1-amino-3-cyclopropyl-1-(pyridin-4-yl)propyl)-2-fluorophenyl)-1-(1H-indole-6-carbonyl)-4-methoxypyrrolidine-2-carboxamide] the Ki was over 100 nM. `C[C@H]1C[C@H](C(=O)Nc2cc(C(N)(CCC3CC3)c3ccncc3)ccc2F)N(C(=O)Nc2ccc(Cl)cn2)C1` (stereo partly drawn) [Compound 48d, (2R,4S)-N2-(5-((+)-1-amino-3-cyclopropyl-1-(pyridin-4-yl)propyl)-2-fluorophenyl)-N1-(5-chloropyridin-2-yl)-4-methylpyrrolidine-1,2-dicarboxamide] was tested, and the Ki was under 50 nM. For `CCCO[C@@H]1C[C@H](C(=O)Nc2cc(C(N)(CCC3CC3)c3ccncc3)ccc2F)N(C(=O)Nc2ccc(Cl)cn2)C1` (stereo partly drawn) [Compound 52d, (2R,4R)-N2-(5-((+)-1-amino-3-cyclopropyl-1-(pyridin-4-yl)propyl)-2-fluorophenyl)-N1-(5-chloropyridin-2-yl)-4-propoxypyrrolidine-1,2-dicarboxamide], the Ki was under 50 nM. With `NC(CCC1CC1)(c1ccncc1)c1ccc(F)c(NC(=O)[C@H]2CC(F)(F)CN2C(=O)Nc2ccc(Cl)cn2)c1` (stereo partly drawn) [Compound 53d, (R)-N2-(5-((+)-1-amino-3-cyclopropyl-1-(pyridin-4-yl)propyl)-2-fluorophenyl)-N1-(5-chloropyridin-2-yl)-4,4-difluoropyrrolidine-1,2-dicarboxamide] the Ki was under 50 nM. Compound `NC(CCC1CC1)(c1ccncc1)c1ccc(F)c(NC(=O)[C@H]2C[C@](O)(C3CC3)CN2C(=O)Nc2ccc(Cl)cn2)c1` (stereo partly drawn) [Compound 59d, (2R,4S)-N2-(5-((+)-1-amino-3-cyclopropyl-1-(pyridin-4-yl)propyl)-2-fluorophenyl)-N1-(5-chloropyridin-2-yl)-4-cyclopropyl-4-hydroxypyrrolidine-1,2-dicarboxamide] has a Ki of under 50 nM. `CCO[C@@H]1C[C@H](C(=O)Nc2cc(C(NCC3CC3)c3cccc(C#N)c3)ccc2F)N(C(=O)Nc2ccc(Cl)cn2)C1` (stereo partly drawn) [Compound 58j, (2R,4R)-N1-(5-chloropyridin-2-yl)-N2-(5-((+)-(3-cyanophenyl)(cyclopropylmethylamino)methyl)-2-fluorophenyl)-4-ethoxypyrrolidine-1,2-dicarboxamide] showed a Ki of under 50 nM. `NC(CCC1CC1)(c1ccc(F)c(NC(=O)[C@H]2C[C@@H](O)CN2C(=O)Nc2ccc(Cl)cn2)c1)c1ccccn1` (stereo partly drawn) [Compound 62c, (2R,4R)-N2-(5-((+)-1-amino-3-cyclopropyl-1-(pyridin-2-yl)propyl)-2-fluorophenyl)-N1-(5-chloropyridin-2-yl)-4-hydroxypyrrolidine-1,2-dicarboxamide] gave a Ki of under 50 nM. `N#Cc1cccc(C(N)(CCC2CC2)c2ccc(F)c(NC(=O)[C@H]3C[C@@H](O)CN3C(=O)Nc3ccc(F)cc3)c2)c1` (stereo partly drawn) [Compound 24b, (2R,4R)-N2-(5-((+)-1-amino-1-(3-cyanophenyl)-3-cyclopropylpropyl)-2-fluorophenyl)-N1-(4-fluorophenyl)-4-hydroxypyrrolidine-1,2-dicarboxamide] showed a Ki of over 100 nM. In the case of `CCNC(CCC1CC1)(c1ccncc1)c1ccc(F)c(NC(=O)[C@H]2C[C@@H](OC)CN2C(=O)Nc2ccc(Cl)cn2)c1` (stereo partly drawn) [Compound 77a, (2R,4R)-N1-(5-chloropyridin-2-yl)-N2-(5-((+)-3-cyclopropyl-1-(ethylamino)-1-(pyridin-4-yl)propyl)-2-fluorophenyl)-4-methoxypyrrolidine-1,2-dicarboxamide], the Ki is reported as under 50 nM.
